The source of these data is patent US9399646B2 (Genentech, Inc., priority 2010, dated 2016).

Assay [1] concerns MCF-7 cells. As to the kind of experiment: Breast cancer cell viability assay (CellTiter-Glo, 5 days). The following applies: 5 days' compound exposure; for IC50: Homo sapiens, MCF7, 120 h. The format is cell-based. A digest of the protocol:
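MCF-7 cells, 320 per well in RPMI with 10% FBS and 20 mM HEPES, adhered overnight, then exposed 5 days to an eleven-point semilog dilution (final 0.3-0.000003 μM). CellTiter-Glo luminescence read; % viability = (sample − cell-free background)/(untreated − background) × 100.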
(In general: In ATP-based viability assays light output follows the ATP content of the culture.)

Assay [2] has as its target T1, ER-α in MCF-7 cells (Homo sapiens, UniProt P03372).
T1 sequence (P03372 1-595): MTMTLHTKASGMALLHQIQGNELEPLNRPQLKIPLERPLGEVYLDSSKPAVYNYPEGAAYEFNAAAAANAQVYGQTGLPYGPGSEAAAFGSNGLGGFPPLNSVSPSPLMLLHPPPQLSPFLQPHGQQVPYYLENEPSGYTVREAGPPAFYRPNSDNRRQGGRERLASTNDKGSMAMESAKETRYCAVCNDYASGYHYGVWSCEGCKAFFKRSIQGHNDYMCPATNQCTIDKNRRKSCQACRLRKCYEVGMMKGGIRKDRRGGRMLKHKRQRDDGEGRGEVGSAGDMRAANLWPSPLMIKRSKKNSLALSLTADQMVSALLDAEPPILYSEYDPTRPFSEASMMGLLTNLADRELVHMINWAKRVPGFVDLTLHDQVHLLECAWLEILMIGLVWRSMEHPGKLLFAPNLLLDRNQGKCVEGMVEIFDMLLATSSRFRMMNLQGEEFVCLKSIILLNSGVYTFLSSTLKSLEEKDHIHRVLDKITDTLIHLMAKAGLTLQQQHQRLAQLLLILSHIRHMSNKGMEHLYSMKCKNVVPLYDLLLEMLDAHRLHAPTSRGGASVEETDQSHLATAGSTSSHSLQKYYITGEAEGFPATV
As to the kind of experiment: Breast cancer cell ER-α in cell western assay (SP1). As to conditions: 4 or 24 hr post compound addition; for Emax: MCF7, SP1 antibody, read-out: ER-α In Cell Western Assay (SP1) Max Response; for DC50: SP1 antibody, read-out: ER-α In Cell Western Assay (SP1) IC50. It is filed as cell-based. The arrangement: endogenous in cells; host or cells: MCF-7. A digest of the protocol: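 Fixed cells were immunostained with SP1 anti-ER antibody; ER signal (800 nm) was normalized to DRAQ5 DNA signal (700 nm) and expressed as % of untreated cells.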

What is called IC50 is the concentration needed to halve the response being measured. High values mean lower potency, low ones higher potency. In the case of `CC/C(=C(/c1ccc(/C=C/C(=O)O)cc1)c1ccc2c(=O)[nH]ccc2c1)c1ccccc1` [Compound 97, (E)-3-(4-((E)-1-(1-Oxo-1,2-dihydroisoquinolin-6-yl)-2-phenylbut-1-en-1-yl)phenyl)acrylic acid], in assay [1], the “MCF7 Viability Assay Max Response” value is reported as “++ (++ = a single % value ≧ 40%)” and the IC50 was not above 100 nM. Moreover, in assay [2], the Emax is not below 40% and the DC50 is more than 100 nM.
The matching figures for `CC/C(=C(/c1ccc(/C=C/C(=O)O)cc1)c1ccc2c(c1)CCC(=O)N2)c1ccccc1` [Compound 100, (E)-3-(4-((E)-1-(2-Oxo-1,2,3,4-tetrahydroquinolin-6-yl)-2-phenylbut-1-en-1-yl)phenyl)acrylic acid]: “++ (++ = a single % value ≧ 40%)”, more than 100 nM, not below 40% and more than 100 nM.
Consider `CC/C(=C(/c1ccc(/C=C/C(=O)O)cc1)c1ccc2[nH]ncc2c1F)c1cccc(Oc2ccccn2)c1` [Compound 375, (E)-3-(4-((E)-1-(4-Fluoro-1H-indazol-5-yl)-2-(3-(pyridin-2-yloxy)phenyl)but-1-en-1-yl)phenyl)acrylic acid], for which, in assay [1], the “MCF7 Viability Assay Max Response” value is “++ (++ = a single % value ≧ 40%)” and the IC50 is not above 100 nM. In assay [2], the Emax was not below 40% and the DC50 was not above 100 nM.
As to `CC/C(=C(/c1ccc(/C=C/C(=O)O)cc1)c1ccc2[nH]ncc2c1)c1cccc(-c2nccs2)c1` [Compound 391, (E)-3-(4-((E)-1-(1H-Indazol-5-yl)-2-(3-(thiazol-2-yl)phenyl)but-1-en-1-yl)phenyl)acrylic acid], in assay [1], the “MCF7 Viability Assay Max Response” value was “++ (++ = a single % value ≧ 40%)” and the IC50 was not above 100 nM. For the same compound, in assay [2], the Emax is not below 40% and the DC50 is not above 100 nM.
Regarding `CC/C(=C(/c1ccc(/C=C/C(=O)O)cc1)c1ccc2[nH]ncc2c1)c1ccc([S+]([O-])C(F)(F)F)cc1` (stereo not drawn) [Compound 302, (E)-3-(4-((E)-1-(1H-Indazol-5-yl)-2-(4-((trifluoromethyl)sulfinyl)phenyl)but-1-en-1-yl)phenyl)acrylic acid], in assay [1], the “MCF7 Viability Assay Max Response” value is listed as “++ (++ = a single % value ≧ 40%)” and the IC50 was not above 100 nM. Moreover, in assay [2], the Emax was not below 40% and the DC50 is not above 100 nM.
As for `CC/C(=C(/c1ccc(/C=C/C(=O)O)cc1)c1ccc2[nH]ncc2c1)c1cnccc1C` [Compound 218, (E)-3-(4-((E)-1-(1H-Indazol-5-yl)-2-(4-methylpyridin-3-yl)but-1-en-1-yl)phenyl)acrylic acid], in assay [1], the “MCF7 Viability Assay Max Response” value is recorded as “++ (++ = a single % value ≧ 40%)” and the IC50 was more than 100 nM. The Emax in assay [2] was not below 40%.
Consider `CC/C(=C(/c1ccc(/C=C/C(=O)O)cc1)c1ccc2[nH]ncc2c1)c1ccc(OCCO)cc1` [Compound 360, (E)-3-(4-((E)-2-(4-(2-Hydroxyethoxy)phenyl)-1-(1H-indazol-5-yl)but-1-en-1-yl)phenyl)acrylic acid], for which, in assay [1], the “MCF7 Viability Assay Max Response” value was “++ (++ = a single % value ≧ 40%)” and the IC50 is more than 100 nM. For the same compound, in assay [2], the Emax was not below 40% and the DC50 is more than 100 nM.
`CC/C(=C(/c1ccc(/C=C/C(=O)O)cc1)c1ccc2[nH]ncc2c1)c1ccc2cnn(C)c2c1` [Compound 258, (E)-3-(4-((E)-1-(1H-Indazol-5-yl)-2-(1-methyl-1H-indazol-6-yl)but-1-en-1-yl)phenyl)acrylic acid]: in assay [1], the “MCF7 Viability Assay Max Response” value is on record as “++ (++ = a single % value ≧ 40%)” and the IC50 is more than 100 nM. Besides, in assay [2], the Emax was not below 40% and the DC50 was not above 100 nM.
Take `CC/C(=C(/c1ccc(/C=C/C(=O)O)cc1)c1cnc2[nH]ncc2c1)c1ccccc1` [Compound 67, (E)-3-(4-((E)-2-Phenyl-1-(1H-pyrazolo[3,4-b]pyridin-5-yl)but-1-en-1-yl)phenyl)acrylic acid]: in assay [1], the “MCF7 Viability Assay Max Response” value is given as “++ (++ = a single % value ≧ 40%)” and the IC50 was more than 100 nM. Moreover, in assay [2], the Emax is not below 40% and the DC50 was more than 100 nM.
On to `CC/C(=C(/c1ccc(/C=C/C(=O)O)cc1)c1ccc2[nH]ncc2c1)c1cnsc1` [Compound 225, (E)-3-(4-((E)-1-(1H-Indazol-5-yl)-2-(isothiazol-4-yl)but-1-en-1-yl)phenyl)acrylic acid], for which, in assay [1], the “MCF7 Viability Assay Max Response” value was “++ (++ = a single % value ≧ 40%)” and the IC50 was more than 100 nM. Moreover, in assay [2], the Emax was not below 40% and the DC50 was more than 100 nM.
As for `CC/C(=C(/c1ccc(/C=C/C(=O)O)cc1)c1ccc2cncn2c1)c1ccccc1` [Compound 133, (E)-3-(4-((E)-1-(Imidazo[1,5-a]pyridin-6-yl)-2-phenylbut-1-en-1-yl)phenyl)acrylic acid], in assay [1], the “MCF7 Viability Assay Max Response” value was “++ (++ = a single % value ≧ 40%)” and the IC50 was more than 100 nM. Also, in assay [2], the Emax was not below 40% and the DC50 is more than 100 nM.
For the compound `CC/C(=C(/c1ccc(/C=C/C(=O)O)cc1)c1ccc2[nH]ncc2c1)c1csc(-c2ccccc2)c1` [Compound 271, (E)-3-(4-((E)-1-(1H-Indazol-5-yl)-2-(5-phenylthiophen-3-yl)but-1-en-1-yl)phenyl)acrylic acid], in assay [1], the “MCF7 Viability Assay Max Response” value is given as “++ (++ = a single % value ≧ 40%)” and the IC50 was not above 100 nM. Also, in assay [2], the Emax is not below 40% and the DC50 was not above 100 nM.
For the compound `CC/C(=C(/c1ccc(/C=C/C(=O)O)cc1)c1ccc2[nH]ncc2c1)c1cnc(C)s1` [Compound 229, (E)-3-(4-((E)-1-(1H-Indazol-5-yl)-2-(2-methylthiazol-5-yl)but-1-en-1-yl)phenyl)acrylic acid], in assay [1], the “MCF7 Viability Assay Max Response” value is “++ (++ = a single % value ≧ 40%)” and the IC50 was more than 100 nM. In assay [2], the Emax was not below 40% and the DC50 is more than 100 nM.
For the compound `CC/C(=C(/c1ccc(/C=C/C(=O)O)cc1)c1ccc2[nH]ncc2c1)c1ccnn1C` [Compound 208, (E)-3-(4-((E)-1-(1H-Indazol-5-yl)-2-(1-methyl-1H-pyrazol-5-yl)but-1-en-1-yl)phenyl)acrylic acid], in assay [1], the “MCF7 Viability Assay Max Response” value is “+ (+ = a single % value < 40%)” and the IC50 was more than 100 nM. For the same compound, in assay [2], the Emax is not below 40% and the DC50 is more than 100 nM.
As for `CC/C(=C(/c1ccc(/C=C/C(=O)O)cc1)c1ccc2[nH]ncc2c1)c1ccccc1-c1ccccc1` [Compound 28, (E)-3-(4-((E)-2-([1,1′-Biphenyl]-2-yl)-1-(1H-indazol-5-yl)but-1-en-1-yl)phenyl)acrylic acid], in assay [1], the “MCF7 Viability Assay Max Response” value was “++ (++ = a single % value ≧ 40%)” and the IC50 was more than 100 nM. Moreover, in assay [2], the Emax was not below 40% and the DC50 was more than 100 nM.
In the case of `CC/C(=C(/c1ccc(/C=C/C(=O)O)cc1)c1ccc2[nH]ncc2c1)c1cccc(Oc2ccccc2)c1` [Compound 261, (E)-3-(4-((E)-1-(1H-Indazol-5-yl)-2-(3-phenoxyphenyl)but-1-en-1-yl)phenyl)acrylic acid], in assay [1], the “MCF7 Viability Assay Max Response” value was “++ (++ = a single % value ≧ 40%)” and the IC50 was not above 100 nM. In addition, in assay [2], the Emax was not below 40% and the DC50 was not above 100 nM.
As to `CC/C(=C(/c1ccc(/C=C/C(=O)O)cc1)c1coc2c(O)cccc12)c1ccccc1` [Compound 451, (E)-3-(4-((E)-1-(7-Hydroxybenzofuran-3-yl)-2-phenylbut-1-en-1-yl)phenyl)acrylic acid], in assay [1], the “MCF7 Viability Assay Max Response” value is given as “++ (++ = a single % value ≧ 40%)” and the IC50 was not above 100 nM. Besides, in assay [2], the Emax is not below 40% and the DC50 is not above 100 nM.
As to `CC/C(=C(/c1ccc(/C=C/C(=O)O)cc1)c1ccc2ccccc2c1)c1ccccc1` [Compound 123, (E)-3-(4-((E)-1-(Naphthalen-2-yl)-2-phenylbut-1-en-1-yl)phenyl)acrylic acid], in assay [1], the “MCF7 Viability Assay Max Response” value was “++ (++ = a single % value ≧ 40%)” and the IC50 is more than 100 nM. Besides, in assay [2], the Emax was not below 40% and the DC50 was not above 100 nM.
For `CC/C(=C(/c1ccc(/C=C/C(=O)O)cc1)c1ccc2[nH]ncc2c1)c1ccc(-c2ccccn2)cc1` [Compound 385, (E)-3-(4-((E)-1-(1H-Indazol-5-yl)-2-(4-(pyridin-2-yl)phenyl)but-1-en-1-yl)phenyl)acrylic acid] the same measures were “++ (++ = a single % value ≧ 40%)”, more than 100 nM, not below 40% and not above 100 nM.
